Values after ≈ are worked out from the molar mass of the structure shown. Structures can show the parent of a compound that is named as a salt. Where two headings read alike, the source gives them in different places.
What was measured:
[1] = system: Mouse P388 leukemia cells; test: Evaluation of cytotoxicity: growth inhibition of mouse P388 leukemia cells (MTT method); format: cell-based; details: 48 h, 37° C., 2 days, read-out: in vitro IC50 (50% growth inhibitory concentration)
Protocol: Evaluation of Cytotoxicity:
Mouse P388 leukemia cells were used as cancer cells, and a RPMI-1640 medium containing 5-μM 2-mercaptoethanol and 10% fetal bovine serum was used in the incubation. The above-mentioned cells were inoculated on a 96-well microplate in an amount of 1×10^4 cells/50 μl/well, and an aqueous solution of a test compound (4 μg/ml) was added thereto in an amount of 25 μl/well. The mixture was incubated at 37° C. for 2 days. Then, the number of live cells were counted using the MTT method, and a dose-response curve was then prepared. A 50% growth inhibitory concentration (IC50) given for the test compound was calculated according to the dose-response curve.

[2] = system: Colon 26; test: Test for the pharmaceutical effect on mice: tumor growth inhibition of subcutaneously implanted Colon 26; details: Mus musculus, Colon 26, iv, 504 h, read-out: in vivo I.R. (tumor growth inhibition rate)
Protocol: Test for the Pharmaceutical Effect on Mice:
Colon 26 which had been cloned subcutaneously in mice was cut with scissors, and implanted subcutaneously in mice by means of a trocar. One week later, the tumors were measured using calipers, and the volumes of the tumors were calculated. The mice were grouped (each group consisting of 3 mice). The test compound was dissolved with dimethylsulfoxide and diluted with 5% by volume Tween 80/saline. A 0.2 ml of the solution was injected intravenously once a day on Day 7, Day 11 and Day 15 after the implantation. On Day 21 after the implantation, the volumes of the tumors were measured. The volume of the tumor and the tumor growth inhibition rate (I.R.) were calculated using the following expressions. [formula]
^a) Administered intravenously once a day on day 7, day 11 and day 15

[3] = Minimum dose which shows death immediately after injection (toxic dose); format: in vivo, mice; details: acute death immediately after injection
[4] = 40 mg/kg, intravenously once a day on day 7, day 11 and day 15, tumor volume on Day 21
[5] = 80 mg/kg, intravenously once a day on day 7, day 11 and day 15, tumor volume on Day 21
[6] = 10 mg/kg, intravenously once a day on day 7, day 11 and day 15, tumor volume on Day 21

SMILES | IC50 [1] [ng/mL] | Toxic Dose (minimum dose which show death immediately after injection) [3] [mg/kg] | other results
COc1ccc(/C=C(/C#N)c2cc(OC)c(OC)c(OC)c2)cc1NC(=O)[C@@H](N)Cc1ccccc1 [(E)-3-(3-Amino-4-methoxyphenyl)-2-(3,4,5-trimethoxyphenyl)-prop-2-enenitrile-L-phenylalanineamide Hydrochloride] | 5 | 80 | inhibition in vivo at 40 mg/kg [2, 4]: 76.7%
COc1ccc(/C=C\c2cc(OC)c(OC)c(OC)c2)cc1NC(=O)[C@@H](N)CC(C)C [(Z)-1-(3-Amino-4-methoxyphenyl)-2-(3,4,5-trimethoxyphenyl)-ethene-L-leucineamide] | 6 (≈ 14 nM) | 40 | inhibition in vivo at 40 mg/kg [2]: 50.9%
COc1ccc(/C=C\c2cc(OC)c(OC)c(OC)c2)cc1NC(=O)[C@H](C)N [(Z)-1-(3-Amino-4-methoxyphenyl)-2-(3,4,5-trimethoxyphenyl)-ethene-L-alanineamide] | 2 (≈ 5.18 nM) | 80 | inhibition in vivo at 40 mg/kg [2]: 51.9%
COc1ccc(/C=C\c2cc(OC)c(OC)c(OC)c2)cc1NC(=O)CN [(Z)-1-(3-Amino-4-methoxyphenyl)-2-(3,4,5-trimethoxyphenyl)-ethene-glycineamide] | 2 (≈ 5.37 nM) | 80 | inhibition in vivo at 40 mg/kg [2]: 33.3%
COc1ccc(/C=C(/C#N)c2cc(OC)c(OC)c(OC)c2)cc1NC(=O)[C@H](C)N [(E)-3-(3-Amino-4-methoxyphenyl)-2-(3,4,5-trimethoxyphenyl)-prop-2-enenitrile-L-alanineamide Hydrochloride] | 0.5 | 80 | inhibition in vivo at 20 mg/kg ([2]; 20 mg/kg, intravenously once a day on day 7, day 11 and day 15, tumor volume on Day 21): 71%
COc1ccc(/C=C(/C#N)c2cc(OC)c(OC)c(OC)c2)cc1NC(=O)[C@@H]1CCCN1 [(E)-3-(3-Amino-4-methoxyphenyl)-2-(3,4,5-trimethoxyphenyl)-prop-2-enenitrile-L-prolineamide Hydrochloride] | 200 | 40 | inhibition in vivo at 40 mg/kg [2, 4]: 68.9%
COc1ccc(/C=C(/C#N)c2cc(OC)c(OC)c(OC)c2)cc1NC(=O)[C@@H](N)CCCN [(E)-3-(3-Amino-4-methoxyphenyl)-2-(3,4,5-trimethoxyphenyl)-prop-2-enenitrile-L-ornithineamide Dihydrochloride] | 50 | – | inhibition in vivo at 10 mg/kg [2]: 48.9%
COc1ccc(/C=C(/C#N)c2cc(OC)c(OC)c(OC)c2)cc1NC(=O)[C@@H](N)CO [(E)-3-(3-Amino-4-methoxyphenyl)-2-(3,4,5-trimethoxyphenyl)-prop-2-enenitrile-L-serineamide Hydrochloride] | 2 | – | inhibition in vivo at 80 mg/kg [2, 5]: 75%
COc1ccc(/C=C(/C#N)c2cc(OC)c(OC)c(OC)c2)cc1NC(=O)[C@@H](N)CCCCN [(E)-3-(3-Amino-4-methoxyphenyl)-2-(3,4,5-trimethoxyphenyl)-prop-2-enenitrile-L-lysineamide Dihydrochloride] | 13 | 20 | inhibition in vivo at 10 mg/kg [2, 6]: 33.8%
COc1ccc(/C=C\c2cc(OC)c(OC)c(OC)c2)cc1NC(=O)[C@@H](N)[C@@H](C)O [(Z)-1-(3-Amino-4-methoxyphenyl)-2-(3,4,5-trimethoxyphenyl)-ethene-L-threonineamide] | 6 (≈ 14.4 nM) | – | inhibition in vivo at 80 mg/kg [2]: 62.2%
COc1ccc(/C=C\c2cc(OC)c(OC)c(OC)c2)cc1NC(=O)[C@@H](N)CO [(Z)-1-(3-Amino-4-methoxyphenyl)-2-(3,4,5-trimethoxyphenyl)-ethene-L-serineamide] | 4 (≈ 9.94 nM) | – | inhibition in vivo at 80 mg/kg [2, 5]: 72.9%
COc1ccc(/C=C(/C#N)c2cc(OC)c(OC)c(OC)c2)cc1NC(=O)CN [(E)-3-(3-Amino-4-methoxyphenyl)-2-(3,4,5-trimethoxyphenyl)-prop-2-enenitrile-glycineamide Hydrochloride] | 3 | 40 | inhibition in vivo at 20 mg/kg [2]: 85.7%
COc1ccc(/C=C(/C#N)c2cc(OC)c(OC)c(OC)c2)cc1NC(=O)[C@@H](N)CCC(=O)O [(E)-3-(3-Amino-4-methoxyphenyl)-2-(3,4,5-trimethoxyphenyl)-prop-2-enenitrile-L-glutamylamide Hydrochloride] | 4 | 80 | inhibition in vivo at 40 mg/kg [2, 4]: 77%
COc1ccc(/C=C(/C#N)c2cc(OC)c(OC)c(OC)c2)cc1NC(=O)[C@@H](N)[C@@H](C)O [(E)-3-(3-Amino-4-methoxyphenyl)-2-(3,4,5-trimethoxyphenyl)-prop-2-enenitrile-L-threonineamide Hydrochloride] | 6 | – | inhibition in vivo at 40 mg/kg [2, 4]: 67%
COc1ccc(/C=C(/C#N)c2cc(OC)c(OC)c(OC)c2)cc1NC(=O)[C@@H](N)CC(=O)O [(E)-3-(3-Amino-4-methoxyphenyl)-2-(3,4,5-trimethoxyphenyl)-prop-2-enenitrile-L-aspartylamide Hydrochloride] | 2 | 40 | inhibition in vivo at 10 mg/kg [2, 6]: 1.7%

— patent publication US5674906A, “Stilbene compounds and pharmaceutical compositions containing them” (Ajinomoto Co., Inc., priority 1995, dated 1997)
